From US20050257287A1, “Vectors capable of imparting herbicide resistance and viral cross protection and methods” (priority 2002, published 2005)

Test system: weeds including nutgrass (Cyperus rotundus L.), little hogweed (Portulaca oleracea L.), pigweed (Amaranthus sp.) and annual graminaceous weeds
Assay: Field experiment: weed eradication by Basta
Type: in vivo
Settings: 0.5% Basta with or without AMS 1.5 g/L
Description: Two varieties of melon (Galia-type cv. 5080 and Ananas-type cv. Ofir), two varieties of watermelon (cvs Crimson and Seedless 313), squash (cv. Maayan) and cucumber (cv. Shimshon) were seeded in Speedling type trays. Seedlings were inoculated by bombardment of cotyledons with the AGII-Bar or AGII construct. Plants were planted in a 500 m^2 field, in a sandy loam soil, at 0.5 m intervals in six 2 m wide rows and irrigated by a single line of 0.5 m interval dripline. Each row included 15 plants of each of the five-cucurbit varieties, 13 plants inoculated with AGII-Bar and two inoculated with AGII as a control. Irrigation was initiated a week previously to boost weeds and facilitate planting. […] The active ingredient was calculated per hectare (g a.i./ha) on basis of ground speed measured separately for each treatment. […] Squash fruit were picked and counted daily. […] Each group was counted and then weighed collectively.
In order to verify the applicability of AGII-Bar to commercial cucurbit cultivation in a field prone to weed infestation an experiment including more than 450 plants was conducted. […] Ten day post inoculation, the infection rate was determined by ELISA of 50 random plant samples and found to be 100%. […]

## ammonium sulphate [AMS]
  Effect of adjuvant on herbicidal activity: did not exert a detectable difference
